{
  "source": "patent US10106853B2",
  "about": "“CUL4B as predictive biomarker for cancer treatment” (CORNELL UNIVERSITY, priority 2012, dated 2018)",
  "key": {"BT474 cells [1]": {"system": "BT474 cells", "assay": "XTT assay for cytotoxic response to camptothecin, BT474", "type": "cell-based, Human", "description": "FIG. 2. CUL4B interacted with Top1 and induced Top1 degradation in the presence of CPT. A) Knockdown of CUL4B impaired CPT-induced Top1 degradation. BT474 cells were infected with lentiviral shCUL4B, shCUL4A or control non-targeting shRNA, and selected for stable CUL4B^k/d or CUL4A^k/d cells upon treatment with puromycin. Following treatment with CPT (50 μM) for 1 hour, cells were replenished with CPT-free fresh medium and incubated at 37° C. for 30 minutes. Top1 degradation was assessed by immunoblotting with an anti-Top1 antibody. Levels of α-tubulin were measured as a loading control. B) Association of CUL4B with Top1 following CPT treatment. […] Top1 degradation was assessed by immunoblotting with the anti-Top1 antibody. Levels of α-tubulin were measured as a loading control. […] Statistical significance in cellular response to CPT between control BT474 cells and CUL4A^k/d or CUL4B^k/d cells were assessed by a two-tailed unpaired student t-test (***: p<0.001). […] Statistical significance in cellular response to camptothecin between control cells and CUL4A^k/d or CUL4B^k/d BT474 cells are assessed by student's t-test.\nSynchronized cells were seeded into 96-well microplates. […] The optical density was measured with a microplate reader. […] Data were expressed as the mean±S.E. Difference in the survival ratios between the two cell lines at each concentration point was assessed by the student's T test. […]"}, "BT474 cells [2]": {"system": "BT474 cells", "assay": "Apoptosis by Western blotting of cleaved caspase-3 and PARP", "type": "cell-based, Human", "conditions": "CUL4B-silenced BT474 cells vs control cells", "description": "FIG. 4. Marked enhancement of apoptosis in BT474-CUL4B^k/d cells following CPT treatment. A, B) Control (shCtrl) or CUL4B^k/d BT474 (shCUL4B) cells were treated with indicated concentrations of CPT for 72 hours (A) or 100 nM CPT for 1, 2 and 3 days (B). Cells were then lysed and immunoblotted with antibodies against native or cleaved caspase 3 or PARP to measure the induction of apoptosis. C) Control, CUL4A^k/d and CUL4B^k/d BT474 cells were treated with 100 nM CPT for 3 days. Cell lysates were prepared and immunoblotted with antibodies against native or cleaved PARP.\nDNA double stranded breaks are one of the most cytotoxic lesions as persistence of γH2AX foci after the initial induction of DNA damage leads to apoptosis. To examine whether CUL4B knockdown affects the sensitivity of breast cancer cells to CPT-induced apoptosis, BT474 cells were treated with CPT and analyzed for induction of apoptosis, as exemplified by cleavage of caspase-3 and PARP."}},
  "data": [
    {"smiles": "CC[C@@]1(O)C(=O)OCc2c1cc1n(c2=O)Cc2cc3ccccc3nc2-1", "note": "[CPT, (S)-4-ethyl-4-hydroxy-1H-pyrano[3′,4′:6,7]indolizino[1,2-b]quinoline-3,14-(4H, 12H)-dione]", "values": [
      {"measurement": "Survival rate of CPT-treated cells", "setting": "BT474 cells [1]; BT474 cells with knockdown of CUL4A", "result": "no effect"},
      {"measurement": "Cytotoxic killing by CPT (cell survival)", "setting": "BT474 cells [1]; BT474 cells with knockdown of CUL4B, CPT three days", "result": "sensitized"},
      {"measurement": "Induction of apoptosis (cleaved caspase-3 and PARP) post-CPT treatment", "setting": "BT474 cells [2]", "result": "robust induction of apoptosis"}
    ]}
  ]
}
